# Measured values as given in patent US20250380700A1, “HERBICIDAL COMBINATIONS AND A METHOD FOR CONTROLLING UNDESIRED VEGETATION” (UPL Mauritius Limited, priority 2022, published 2025).
# Tested on: weedy Glycine max
# Assay: Post-emergence herbicidal activity trial on weedy Glycine max (observed efficacy vs Colby expected efficacy)
# Type: in vivo
# Protocol: Methodology: Trials were conducted to evaluate the efficacy of the combination comprising L-glufosinate ammonium and additional herbicides on weedy Glycine max.
# The soil used was sandy clay loam-sand: 68.0%; silt: 8.0%; clay: 24.0%.
# All treatments were in 3 replications per treatment with a spray volume of about 150 L/ha.
# The expected efficacy of a combination of L-glufosinate ammonium and the other herbicides was calculated using the well-established Colby method. Any difference between the observed and “expected” efficacy could be attributed to synergy between the two compounds.
# In the Colby method, the expected (or predicted) response of a combination of herbicides is calculated by taking the product of the observed response for each individual component of the combination when applied alone, divided by 100, and subtracting this value from the sum of the observed response for each component when applied alone. An unexpected enhancement in efficacy of the combination is then determined by comparing the observed response of the combination to the expected (or predicted) response as calculated from the observed response of each individual component alone. If the observed response of the combination is greater than the expected (or predicted) response, or stated conversely, if the difference between the observed and expected response is greater than zero, then the combination is said to be synergistic or unexpectedly effective (Colby, S. R., Weeds, 1967(15), p. 20-22). The Colby method requires only a single dose of each herbicide applied alone and the mixture of both doses. The formula used to calculate the expected efficacy (EE) which was compared with the observed efficacy (OE) to determine the efficacy of the present disclosure is explained hereinbelow:
# The expected efficacy for a combination of two active ingredients is as follows:
# The expected efficacy for a combination of three active ingredients is as follows:
# wherein, • A=Observed efficacy of active ingredient A at the same concentration as used in the mixture. • B=Observed efficacy of the active ingredient B at the same concentration as used in the mixture. • C=Observed efficacy of the active ingredient C at the same concentration as used in the mixture.
smiles,measurement,setting,value
"O=C(O)COc1ccc(Cl)cc1Cl [2,4-D]","Observed efficacy (%) of 2,4-D (228 g a.i./ha)","Example 3, Table 4, 3 DAA",50%
same,"Observed efficacy (%) of 2,4-D (228 g a.i./ha)","Example 3, Table 4, 7 DAA",60%
CP(=O)(O)CC[C@H](N)C(=O)O.N [L-glufosinate ammonium],Observed efficacy (%) of L-glufosinate ammonium (150 g a.i./ha),"Example 1, Table 2, 3 DAA, post-emergence",65%
same,Observed efficacy (%) of L-glufosinate ammonium (150 g a.i./ha),"Example 1, Table 2, 7 DAA, post-emergence",65%
same,Observed efficacy (%) of L-glufosinate ammonium (150 g a.i./ha),"Example 2, Table 3, 3 DAA",50%
same,Observed efficacy (%) of L-glufosinate ammonium (150 g a.i./ha),"Example 2, Table 3, 7 DAA",65%
same,Observed efficacy (%) of L-glufosinate ammonium (150 g a.i./ha),"Example 3, Table 4, 3 DAA",50%
same,Observed efficacy (%) of L-glufosinate ammonium (150 g a.i./ha),"Example 3, Table 4, 7 DAA",75%
O=C(O)COc1nc(Cl)c(Cl)cc1Cl [Triclopyr],Observed efficacy (%) of Triclopyr (228 g a.i./ha),"Example 2, Table 3, 3 DAA",75%
same,Observed efficacy (%) of Triclopyr (228 g a.i./ha),"Example 2, Table 3, 7 DAA",68%
CC(C)N(C)S(=O)(=O)NC(=O)c1cc(-n2c(=O)cc(C(F)(F)F)n(C)c2=O)c(F)cc1Cl [Saflufenacil],Observed efficacy (%) of Saflufenacil (30 g a.i./ha),"Example 1, Table 2, 3 DAA",50%
same,Observed efficacy (%) of Saflufenacil (30 g a.i./ha),"Example 1, Table 2, 7 DAA",70%
same,Observed efficacy (%) of Saflufenacil (30 g a.i./ha),"Example 2, Table 3, 3 DAA",65%
same,Observed efficacy (%) of Saflufenacil (30 g a.i./ha),"Example 2, Table 3, 7 DAA",70%
same,Observed efficacy (%) of Saflufenacil (30 g a.i./ha),"Example 3, Table 4, 3 DAA",65%
same,Observed efficacy (%) of Saflufenacil (30 g a.i./ha),"Example 3, Table 4, 7 DAA",75%
